Experimental data from patent US8664206B2, “Diastereomers of 2-methylene-19-nor-22-methyl-1α,25-dihydroxyvitamin D3” (Wisconsin Alumni Research Foundation, priority 2010, dated 2014).
Entries after “also recorded” stand apart in the source; their conditions may differ.

How the values were obtained:
[1] = system: Sprague-Dawley rats; experiment: Intestinal calcium transport (everted gut sac method); format: in vivo, rat; conditions: for net intestinal calcium transport, serosal to mucosal ratio / intestinal calcium transport activity compared with 1,25(OH)2D3 (in words): rat; for net intestinal calcium transport, serosal to mucosal ratio: relative to vehicle; for intestinal calcium transport activity compared with 1,25(OH)2D3 (in words): intraperitoneal doses
Description: (§1) Male, weanling Sprague-Dawley rats were placed on Diet 11 (0.47% Ca) diet+AEK oil for one week followed by Diet 11 (0.02% Ca)+AEK oil for 3 weeks. The rats were then switched to a diet containing 0.47% Ca for one week followed by two weeks on a diet containing 0.02% Ca. Dose administration began during the last week on 0.02% calcium diet. Four consecutive intraperitoneal doses were given approximately 24 hours apart. Twenty-four hours after the last dose, blood was collected from the severed neck and the concentration of serum calcium determined as a measure of bone calcium mobilization. The first 10 cm of the intestine was also collected for intestinal calcium transport analysis using the everted gut sac method.

[2] = system: HL-60 cells; experiment: HL-60 differentiation (nitro blue tetrazolium reduction); format: cell-based, human; conditions: for HL-60 cell differentiation, times more potent than the native hormone: fold MORE potent/active than 1,25(OH)2D3; for EC50: Homo sapiens, HL-60; for HL-60 Differentiation Relative Activity: relative to the native hormone 1,25(OH)2D3 in the same assay, (value for native hormone)/(value for working example), >1 = more active
Description: The study drugs were dissolved in ethanol and the concentrations determined using UV spectrophotometry. Serial dilutions were prepared so that a range of drug concentrations could be tested without changing the final concentration of ethanol (≦0.2%) present in the cell cultures.
Human promyelocytic leukemia (HL60) cells were grown in RPMI-1640 medium containing 10% fetal bovine serum. The cells were incubated at 37° C. in the presence of 5% CO2.
HL60 cells were plated at 1.2×10^5 cells/ml. Eighteen hours after plating, cells in duplicate were treated with drug. Four days later, the cells were harvested and a nitro blue tetrazolium reduction assay was performed (Collins et al., 1979; J. Exp. Med. 149:969-974). The percentage of differentiated cells was determined by counting a total of 200 cells and recording the number that contained intracellular black-blue formazan deposits. Verification of differentiation to monocytic cells was determined by measuring phagocytic activity (data not shown).

[3] = system: Sprague-Dawley rats; experiment: Bone calcium mobilization (serum calcium); format: in vivo, rat; conditions: for bone calcium mobilization activity compared with 1,25(OH)2D3 (in words): intraperitoneal doses
Description: as §1

[4] = system: 24-hydroxylase (24OHase) gene promoter; experiment: In vitro transcription assay (24-hydroxylase promoter-luciferase in ROS 17/2.8 bone cells); format: cell-based, rat; conditions: for EC50: Rattus norvegicus; for 24OHase Transcription Relative Activity: relative to the native hormone 1,25(OH)2D3 in the same assay, (value for native hormone)/(value for working example), >1 = more active
Description: Transcription activity was measured in ROS 17/2.8 (bone) cells that were stably transfected with a 24-hydroxylase (24OHase) gene promoter upstream of a luciferase reporter gene (Arbour et al., 1998). Cells were given a range of doses. Sixteen hours after dosing the cells were harvested and luciferase activities were measured using a luminometer. RLU=relative luciferase units.

[5] = target: T1, vitamin D receptor (full-length recombinant rat receptor) (Rattus norvegicus, UniProt P13053); experiment: Vitamin D receptor competitive binding; conditions: for binding to the nuclear vitamin D receptor compared with 1,25(OH)2D3 (in words): competitive binding against 3H-1,25(OH)2D3, recombinant rat receptor; for Ki: read-out: Competitive VDR Binding (Ki)
T1 construct: Full-length recombinant rat receptor was expressed in E. coli; His tag (C); made in house; host or cells: E. coli BL21(DE3) Codon Plus RIL
T1 sequence (P13053 1-423): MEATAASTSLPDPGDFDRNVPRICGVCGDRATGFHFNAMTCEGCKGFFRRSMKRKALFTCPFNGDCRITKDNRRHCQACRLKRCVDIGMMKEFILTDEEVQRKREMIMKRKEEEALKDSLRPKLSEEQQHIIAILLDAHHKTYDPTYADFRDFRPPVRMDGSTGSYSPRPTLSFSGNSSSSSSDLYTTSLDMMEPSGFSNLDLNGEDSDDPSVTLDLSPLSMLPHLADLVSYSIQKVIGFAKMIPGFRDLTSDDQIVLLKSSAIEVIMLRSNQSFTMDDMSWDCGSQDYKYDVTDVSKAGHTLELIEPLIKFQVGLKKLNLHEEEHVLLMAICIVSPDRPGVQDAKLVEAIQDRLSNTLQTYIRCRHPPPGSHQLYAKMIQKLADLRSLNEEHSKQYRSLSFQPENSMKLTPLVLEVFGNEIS
Description: Full-length recombinant rat receptor was expressed in E. coli BL21(DE3) Codon Plus RIL cells and purified to homogeneity using two different column chromatography systems. The first system was a nickel affinity resin that utilizes the C-terminal histidine tag on this protein. The protein that was eluted from this resin was further purified using ion exchange chromatography (S-Sepharose Fast Flow). Aliquots of the purified protein were quick frozen in liquid nitrogen and stored at −80° C. until use. For use in binding assays, the protein was diluted in TEDK50 (50 mM Tris, 1.5 mM EDTA, pH 7.4, 5 mM DTT, 150 mM KCl) with 0.1% Chaps detergent. The receptor protein and ligand concentration was optimized such that no more than 20% of the added radiolabeled ligand was bound to the receptor.
Unlabeled ligands were dissolved in ethanol and the concentrations determined using UV spectrophotometry (1,25(OH)2D3: molar extinction coefficient=18,200 and λmax=265 nm; Analogs: molar extinction coefficient=42,000 and λmax=252 nm). Radiolabeled ligand (^3H-1,25(OH)2D3, ˜159 Ci/mmole) was added in ethanol at a final concentration of 1 nM.
Radiolabeled and unlabeled ligands were added to 100 mcl of the diluted protein at a final ethanol concentration of ≦10%, mixed and incubated overnight on ice to reach binding equilibrium. The following day, 100 mcl of hydroxylapatite slurry (50%) was added to each tube and mixed at 10-minute intervals for 30 minutes. The hydroxylapatite was collected by centrifugation and then washed three times with Tris-EDTA buffer (50 mM Tris, 1.5 mM EDTA, pH 7.4) containing 0.5% Titron X-100. After the final wash, the pellets were transferred to scintillation vials containing 4 ml of Biosafe II scintillation cocktail, mixed and placed in a scintillation counter. Total binding was determined from the tubes containing only radiolabeled ligand.

| SMILES | net intestinal calcium transport, serosal to mucosal ratio [1] | HL-60 cell differentiation, times more potent than the native hormone [2] [times] | net bone calcium mobilization activity ([3]; rat) [mg/dL] | Net Intestinal Ca2+ Transport (serosal Ca2+ to mucosal Ca2+ ratio, S/M) ([1]; at 780 pM dosage) | intestinal calcium transport activity compared with 1,25(OH)2D3 (in words) [1] | EC50 [4] [nM] | 24-hydroxylase transcription activity compared with 1,25(OH)2D3 (in words) ([4]; bone cells) | transcription of the 24-hydroxylase gene, times more potent than 1,25(OH)2D3 ([4]; bone cells, fold MORE potent) [times] | 24OHase Transcription Relative Activity [4] | cell differentiation activity (in words) [2] | EC50 [2] [nM] | HL-60 Differentiation Relative Activity [2] | binding to the nuclear vitamin D receptor compared with 1,25(OH)2D3 (in words) [5] | Ki [5] [nM] | Net Bone Ca2+ Mobilization ([3]; at 780 pM dosage) [mg/dL] | bone calcium mobilization activity compared with 1,25(OH)2D3 (in words) ([3]; rat) | transcription of the 24-hydroxylase gene, times less potent than 1,25(OH)2D3 ([4]; rat osteosarcoma cells, fold LESS potent) | bone calcium mobilization, times less potent than the native hormone ([3]; rat, fold LESS potent in releasing bone calcium stores) | Net Intestinal Ca2+ Transport (serosal Ca2+ to mucosal Ca2+ ratio, S/M) ([1]; at 260 pM dosage) | Net Bone Ca2+ Mobilization ([3]; at 260 pM dosage) |
| --- | --- | --- | --- | --- | --- | --- | --- | --- | --- | --- | --- | --- | --- | --- | --- | --- | --- | --- | --- | --- |
| C=C1C(O)CC(=CC=C2CCCC3(C)C2CCC3[C@@H](C)CCCC(C)(C)O)CC1O (single isomer, unassigned) [20R isomer of 2MD, 2-methylene-19-nor-1α,25-dihydroxyvitamin D3, reference compound] | −0.6 | 0.95 | 4.5 | – | – | – | – | – | – | – | – | – | – | – | – | – | – | – | – | – |
| C=C1C(O)CC(=CC=C2CCCC3(C)C2CCC3[C@@H](C)CCCC(C)(C)O)CC1O (single isomer, unassigned) [20S isomer of 2MD, 2-methylene-19-nor-1α,25-dihydroxyvitamin D3, reference compound] | −0.9 | 27 | 9.3 | – | – | – | – | – | – | – | – | – | – | – | – | – | – | – | – | – |
| C=C1[C@H](O)CC(=C/C=C2\CCC[C@@]3(C)C2CC[C@@H]3[C@@H](C)[C@H](C)CCC(C)(C)O)C[C@H]1O (stereo partly drawn) [AGS-1, (20S,22R)-2-methylene-19-nor-22-methyl-1α,25-dihydroxyvitamin D3] | 4.3 | – | – | 9.9 | more potent than 1,25-(OH)2D3; also recorded: higher potency in promoting intestinal calcium transport than the native hormone; also recorded: significantly higher | 0.008 | relatively high 24-hydroxylase transcription activity | ~40 | 38 | relatively high cell differentiation activity | 0.01 | 300 | approximately equally effective as 1,25-(OH)2D3; also recorded: same affinity as 1,25(OH)2D3; also recorded: bind the vitamin D receptor | 0.07 | 5.3 | more potent than 1,25-(OH)2D3; also recorded: does show activity with regard to net bone calcium mobilization; also recorded: more efficacious; also recorded: significantly higher bone calcium mobilization activity | – | – | – | – |
| C=C1[C@H](O)CC(=C/C=C2\CCC[C@@]3(C)C2CC[C@@H]3[C@@H](C)[C@@H](C)CCC(C)(C)O)C[C@H]1O (stereo partly drawn) [AGS-2, (20S,22S)-2-methylene-19-nor-22-methyl-1α,25-dihydroxyvitamin D3] | – | – | – | 4.3 | significant net intestinal calcium transport; also recorded: comparable or slightly higher intestinal calcium transport compared to 1,25(OH)2D3 | 3 | relatively high 24-hydroxylase transcription activity | – | 0.1 | relatively high cell differentiation activity | 20 | 0.15 | lower affinity relative to 1,25-(OH)2D3; also recorded: lower affinity than 1,25(OH)2D3; also recorded: bind the vitamin D receptor | 8 | 0 | much reduced ability to mobilize calcium from bone compared to 1,25-(OH)2D3; also recorded: no net calcemic activity on bone; also recorded: essentially no ability to mobilize bone calcium except at extremely high concentrations | about 10 times | approximately 50 times | – | – |
| C=C1[C@H](O)CC(=C/C=C2\CCC[C@@]3(C)C2CC[C@@H]3[C@H](C)[C@@H](C)CCC(C)(C)O)C[C@H]1O (stereo partly drawn) [SAG-1, (20R,22S)-2-methylene-19-nor-22-methyl-1α,25-dihydroxyvitamin D3] | – | – | – | – | comparable or reduced potency in comparison to 1,25(OH)2D3 at lower concentrations but increased potency in comparison to 1,25(OH)2D3 at high concentrations | 0.3 | approximately equal in potency to 1,25(OH)2D3 | – | 10 | relatively high cell differentiation activity | 0.6 | 3.3 | bind the vitamin D receptor | 0.09 | – | less potent than 1,25-(OH)2D3; also recorded: no net calcemic activity on bone; also recorded: less potent than the native hormone; also recorded: little or no ability to mobilize bone calcium except at extremely high doses | – | – | 1.3^7 | 0.3^7 mg/dL |
| C=C1C(O)CC(=CC=C2CCCC3(C)C2CCC3[C@H](C)[C@H](C)CCC(C)(C)O)CC1O (stereo partly drawn) [SAG-2, (20R,22R)-2-methylene-19-nor-22-methyl-1α,25-dihydroxyvitamin D3] | – | – | – | – | – | – | unexpectedly low in comparison to the native hormone | – | – | – | – | – | – | – | – | – | – | – | – | – |
